Laboratory results as given in PMC3025922 (BMC Biology, 2010).
Read-outs that look alike come from different tables or passages of the source.

Test system: nuclear p27 in LNCaP-S14 cells
Format: cell-based, human
Conditions: for hit in primary screen (increased percentage of p27 positive cells): LNCaP-S14, ~5 to 35 μM, 18 h
[1] = primary screening, nuclear p27 in LNCaP-S14 cells
[2] = primary screening, S = strong, M = medium, W = weak by Z score

| SMILES | Z score (aver) [1] | Clasf [2] | hit in primary screen (increased percentage of p27 positive cells) | Clasf | Z score (aver) |
| --- | --- | --- | --- | --- | --- |
| Clc1ccc(COC(Cn2ccnc2)c2ccc(Cl)cc2Cl)cc1.O=[N+]([O-])O (stereo not shown) [1568N10] | 2.46 | W (weak (Z score 2-3) |  |  |  |
| Cc1cc2c(C(C)C)c(O)c(O)c(C=O)c2c(O)c1-c1c(C)cc2c(C(C)C)c(O)c(O)c(C=O)c2c1O [1570G15] | 3.54 | M (medium (Z score 3-5)) |  |  |  |
| CC12CCC(O)CC1CCC1C2CC(O)C2(C)C(C3=CC(=O)OC3)CCC12O (stereo not shown) [1570B08] | 2.80 | W (weak (Z score 2-3) |  |  |  |
| CC(C)CC1C(=O)N2CCCC2C2(O)OC(NC(=O)C3C=C4c5cccc6[nH]c(Br)c(c56)CC4N(C)C3)(C(C)C)C(=O)N12.CS(=O)(=O)O (stereo not shown) [502C19] | 2.62 | W (weak (Z score 2-3) |  |  |  |
| C=CCNC1=C2C[C@@H](C)C[C@H](OC)[C@H](O)[C@@H](C)/C=C(\C)[C@H](OC(N)=O)[C@@H](OC)/C=C\C=C(/C)C(=O)NC(=CC1=O)C2=O [17-N-allylamino-17-demethoxygeldanamycin, reference compound] |  |  | identified |  |  |
| COc1ccc(C2=NN3C(C2)c2cc(Cl)ccc2OC32CCCC2)cc1 (stereo not shown) [1157E14] | 4.67 | M (medium (Z score 3-5)) |  |  |  |
| COc1ccc2[nH]cc(CCNC(=O)OCC3CC4CCC3C4)c2c1 (stereo not shown) [567M20] | 4.13 | M (medium (Z score 3-5)) |  |  |  |
| CCCN1CCC(N(C(=O)c2cccc(C(F)(F)F)c2)c2ccc3[nH]c(C(C)(C)C)cc3c2)CC1 [1306L20] | 6.78 | S (strong (Z score > 5)) |  |  |  |
| Cc1[nH]cnc1-c1ccc(C(F)(F)F)cc1 [522D05] | 3.87 | M (medium (Z score 3-5)) |  |  |  |
| Cc1ccc(C)c2c1-c1ccccc1S(=O)(=O)N2S(=O)(=O)c1ccccc1 [1160M11] | 2.11 | W (weak (Z score 2-3) |  |  |  |
| CCN(C(=O)c1ccc(C(C)(C)C)cc1)c1ccc(Sc2nc(C)cc(C)n2)cc1 [519P04] | 5.16 | S (strong (Z score > 5)) |  |  |  |
| CN(C)CCCN1c2ccccc2CCc2ccc(Cl)cc21.Cl [1568F20] | 2.49 | W (weak (Z score 2-3) |  |  |  |
| O=c1[nH]c2ccccc2n1C1CCN(CCCC(c2ccc(F)cc2)c2ccc(F)cc2)CC1 [1568N18] | 2.26 | W (weak (Z score 2-3) |  |  |  |
| COc1ccccc1CNC1CC(C)(C)n2cccc21 (stereo not shown) [519F12] | 2.47 | W (weak (Z score 2-3) |  |  |  |
| Cc1c2ccncc2c(C)c2c1[nH]c1ccccc12 [1569L10] | 2.59 | W (weak (Z score 2-3) |  |  |  |
| CCNC(=O)C=C1NC(C)(C)Cc2c1ccc1ccccc21 [1160G14] | 2.31 | W (weak (Z score 2-3) |  |  |  |
| CC(=O)Nc1ccc(S(=O)(=O)N(Cc2ccc3c(c2)CCO3)C2CC2)cc1 [541J07] | 3.47 | M (medium (Z score 3-5)) |  |  |  |
| CC(C)(C)c1cc2cc(NC(=O)C3CC3)ccc2[nH]1 [520D04] | 2.80 | W (weak (Z score 2-3) |  |  |  |
| Cc1cc(Br)ccc1NC(=O)CCCc1c[nH]c2ccccc12 [1520E21] | 4.74 | M (medium (Z score 3-5)) |  |  |  |
| COc1cc(C#N)ccc1OC(=O)Cc1coc2ccc3ccccc3c12 [1715D21] | 2.52 | W (weak (Z score 2-3) |  |  |  |
| CCOC(=O)c1cc(C#N)c(Sc2ccc(C)cc2)nc1C(F)(F)F [1520B07] | 5.43 | S (strong (Z score > 5)) |  |  |  |

| SMILES | Z score (aver) [1] | Clasf [2] | hit in primary screen (increased percentage of p27 positive cells) | Clasf | Z score (aver) |
| --- | --- | --- | --- | --- | --- |
| Cc1cc(C2CCCCC2)n(O)c(=O)c1.NCCO [502D07] | 4.86 | M (medium (Z score 3-5)) |  |  |  |
| CC(C)(C)c1cc2cc(NC(=O)c3cccs3)ccc2[nH]1 [520D16] | 3.98 | M (medium (Z score 3-5)) |  |  |  |
| N#CC(C#N)=NNc1ccc(OC(F)(F)F)cc1 [1362E11] |  |  |  | S (key: S: strong (Z score > 5); M: medium (Z score 3-5); W: weak (Z score 2-3) | 6.18 |
| COc1ccccc1C1Oc2ccc(Cl)cc2C2CC(c3ccc(Cl)cc3)=NN21 (stereo not shown) [1158M11] | 4.34 | M (medium (Z score 3-5)) |  |  |  |
| O=C(NCCCn1ccnc1)OCc1ccc(C#Cc2ccccc2)s1 [567M14] | 2.83 | W (weak (Z score 2-3) |  |  |  |
| O=C(Nc1ccc([N+](=O)[O-])cc1Cl)c1cc(Cl)ccc1O [1568G21] | 3.77 | M (medium (Z score 3-5)) |  |  |  |
| COC[C@H]1OC(=O)c2coc3c2[C@@]1(C)C1=C(C3=O)[C@@H]2CCC(=O)[C@@]2(C)C[C@H]1OC(C)=O [Wortmannin, reference compound] |  |  | scored positive |  |  |
| C=C1C(=O)OC2C1CCC(C)=CCCC1(C)OC21 (stereo not shown) [1569N21] | 8.12 | S (strong (Z score > 5)) |  |  |  |
| NCC(O)c1ccc(O)c(O)c1 (stereo not shown) [500L12] | 9.42 | S (strong (Z score > 5)) |  |  |  |
| Cl.OC(c1cc(C(F)(F)F)nc2c(C(F)(F)F)cccc12)C1CCCCN1 (stereo not shown) [1568I14] | 8.87 | S (strong (Z score > 5)) |  |  |  |
| S=C(NCc1ccccc1)Nc1ccc(Br)cc1 [541M20] | 4.62 | M (medium (Z score 3-5)) |  |  |  |
| NCC1OC(OC2C(N)CC(N)C(O)C2OC2OC(CO)C(O)C2O)C(N)C(O)C1O.O=S(=O)(O)O (stereo not shown) [1570G18] | 6.58 | S (strong (Z score > 5)) |  |  |  |
| COC12C(COC(N)=O)C3=C(C(=O)C(C)=C(N)C3=O)N1CC1NC12 (stereo not shown) [503O09] |  |  |  | M (key: S: strong (Z score > 5); M: medium (Z score 3-5); W: weak (Z score 2-3) | 4.55 |
| COc1cc(C(=O)N2c3ccc(C)cc3-c3c(ssc3=S)C2(C)C)cc(OC)c1OC [1160F11] | 3.09 | M (medium (Z score 3-5)) |  |  |  |
| CCOC(=O)c1cc2cccc(NC(=O)c3ccccc3OC(C)=O)c2[nH]1 [519O17] | 9.25 | S (strong (Z score > 5)) |  |  |  |
| CCCCOc1ccc(C(=O)CCN2CCCCC2)cc1.Cl [1568F10] | 2.33 | W (weak (Z score 2-3) |  |  |  |
| O=C(OCn1ncc(Cl)c(Cl)c1=O)c1ccc(C(F)(F)F)cc1 [567M13] |  | S (strong (Z score > 5)) |  |  |  |
| CC(C)c1ccc(NC(=O)N2CCCN(CCOc3ccccc3)CC2)cc1 [1520P16] | 2.72 | W (weak (Z score 2-3) |  |  |  |
| CC(C)(C)c1cc2cc(NC3CCN(C(=O)c4ccccc4Cl)CC3)ccc2[nH]1 [520N14] | 2.16 | W (weak (Z score 2-3) |  |  |  |
| CCC1(C2OC(C3OC(O)(CO)C(C)CC3C)CC2C)CCC(C2(C)CCC3(CC(O)C(C)C(C(C)C(OC)C(C)C(=O)[O-])O3)O2)O1.[Na+] (stereo not shown) [1570E18] | 9.26 | S (strong (Z score > 5)) |  |  |  |
| O=C(CCCN1CCC2(CC1)C(=O)NCN2c1ccccc1)c1ccc(F)cc1 [1568J18] | 4.37 | M (medium (Z score 3-5)) |  |  |  |

| SMILES | Z score (aver) [1] | Clasf [2] | hit in primary screen (increased percentage of p27 positive cells) | Clasf | Z score (aver) |
| --- | --- | --- | --- | --- | --- |
| OCCN1CCN(CCCN2c3ccccc3Sc3ccc(Cl)cc32)CC1 [1568I12] | 3.13 | M (medium (Z score 3-5)) |  |  |  |
| Cc1onc(-c2c(Cl)cccc2Cl)c1-c1csc(CCn2c(=O)oc3ccccc32)n1 [1520L12] | 2.13 | W (weak (Z score 2-3) |  |  |  |
| COc1cc(C2c3cc4c(cc3C(OC3OC5COC(C)OC5C(O)C3O)C3COC(=O)C23)OCO4)cc(OC)c1O (stereo not shown) [1569O13] | 6.74 | S (strong (Z score > 5)) |  |  |  |
| CC(=O)C1C(c2cccc(I)c2)C(C#N)(C#N)C2C=Cc3ccccc3N12 (stereo not shown) [669K10] | 3.55 | M (medium (Z score 3-5)) |  |  |  |
| CC(C)(C)c1ccc(C(=O)N2CCC(N(C3CC3)S(=O)(=O)c3cccc(C(F)(F)F)c3)CC2)cc1 [521J08] | 2.93 | W (weak (Z score 2-3) |  |  |  |
| Cc1cc(C)nc(N2CCN(C(=O)C(c3ccccc3)c3ccccc3)CC2)n1 [521H09] | 2.35 | W (weak (Z score 2-3) |  |  |  |
| CS(=O)(=O)c1ccc(C=CC(=O)Nc2ccccn2)cc1 [518N17] | 4.22 | M (medium (Z score 3-5)) |  |  |  |
| COC(=O)C1=C(N)n2c(sc(=Cc3ccc(Cl)cc3)c2=O)=C(C(=O)OC)C1c1ccc(Cl)cc1 (stereo not shown) [1159F17] | 2.15 | W (weak (Z score 2-3) |  |  |  |
| COc1ccccc1N1CCN(C(=O)CSc2nc3ccccc3c(=O)n2CCC(=O)NC2CCCCC2)CC1 [1158L12] | 2.46 | W (weak (Z score 2-3) |  |  |  |
| CC[C@@]1(O)C(=O)OCc2c1cc1n(c2=O)Cc2cc3ccccc3nc2-1 [camptothecin, reference compound] |  |  | identified |  |  |
| COC(=O)c1c(-c2c(Cl)cccc2Cl)noc1C=CN(C)C [1306I21] | 4.49 | M (medium (Z score 3-5)) |  |  |  |
| CC(=O)C1=C(C)NC(SCC(=O)c2ccc(Cl)cc2Cl)=C(C#N)C1c1sccc1C (stereo not shown) [1159B21] | 2.34 | W (weak (Z score 2-3) |  |  |  |
| Cc1ccc(-c2cn3c([n+]2-c2ccc(C)cc2)CCCCC3)cc1 [1159I14] | 2.49 | W (weak (Z score 2-3) |  |  |  |
| COc1ccc(S(=O)(=O)N(Cc2ccc(Cl)cc2)Cc2ccc3cc[nH]c3c2)cc1 [522N08] | 3.74 | M (medium (Z score 3-5)) |  |  |  |
| O=C1C(Cl)=C(N2CCC(C(=O)N3CCOCC3)CC2)C(=O)c2ccccc21 [567A03] | 6.25 | S (strong (Z score > 5)) |  |  |  |
| CCCCCCSc1nnc(N)s1 [541O08] | 8.05 | S (strong (Z score > 5)) |  |  |  |
| O=C(O)C1CCCNC1 (stereo not shown) [500H10] |  |  |  | M (key: S: strong (Z score > 5); M: medium (Z score 3-5); W: weak (Z score 2-3) | 3.12 |
| COc1ccc(S(=O)(=O)Nc2cccc3cc(C(=O)NCc4ccc(Cl)cc4)[nH]c23)cc1 [522N16] | 5.29 | S (strong (Z score > 5)) |  |  |  |
| CCC1(O)C(=O)OCc2c1cc1n(c2=O)Cc2cc3ccccc3nc2-1 (stereo not shown) [1568H21] | 4.82 | M (medium (Z score 3-5)) |  |  |  |
